For data set [1], the system named is 293T human embryonic kidney cells. Put plainly: SP toxicity to untransfected 293T cells. The data set is classed as cell-based. Particulars: no endogenous NK1R, up to millimolar SP. As for the experimental part:
Human embryonic kidney 293T cells were grown as described in Example I. Transient transfection was performed using Superfect (Qiagen) as described by the manufacturer. Briefly, 2×10^5 cells/well were seeded into 35 mm wells 16 hr prior to transfection. Superfect:DNA complexes were added at a 5 μl:2 μg ratio for 3 hr; then the medium was replaced and after 24 hr SP was added. At 24–48 hr after addition of SP cell death was quantified as follows: the media containing floating cells were collected and centrifuged 10 min at 2000×g, the pellet was resuspended in PBS/trypan blue and the cells were counted using a hematocytometer. When other compounds were used, they were added at the same time as SP: zVAD.fmk or BAF was added at 50 μM and obtained from Enzyme System Products, Livermore, Calif.

The subject of data set [2] is striatal, cortical, and hippocampal neurons. Put plainly: SP-induced cell death in primary striatal, cortical and hippocampal neurons, trypan blue viability and staining. The data set is classed as cell-based, rat. The procedure, abridged: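 Rat E17 striatal, cortical or hippocampal neurons, used day 1–7, received SP (0.1 nM–100 μM) 24–48 h after seeding in 2.5% horse serum; co-treatments given with SP, kinase inhibitors 30 min before. Viability measured by trypan blue staining of the total cell population.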

Another data set relates to cytoplasmic calcium. Put plainly: Imaging of cytoplasmic calcium in single striatal cells. The data set is classed as cell-based. As for the experimental part: Single-cell imaging was performed in a Merlin imaging facility (Olympus America, USA) using an Olympus IX70 inverted epifluorescence microscope equipped with a 40× oil immersion objective and a Spectramaster monochromator (Life Science Resources, Cambridge, UK) (excitation, 340 and 380 nm; emission >505 nm). Cells were loaded with 3 μM Fura-2 AM (from TEF LABS, Texas, USA) for 30 min in incubation medium containing (in mM): 120 NaCl, 3.5 KCl, 1.3 CaCl2, 0.4 KH2PO4, 20 TES buffer, 5 NaHCO3, 1.2 Na2SO4, 15 Glucose, 1.2 MgCl2, pH adjusted to 7.4 with NaOH. 30 μg/ml bovine serum albumin was also added. Experiments were performed in a non-perfusing thermostatted chamber (37° C.) with incubation medium without bovine serum albumin (Castilho et al., J. Neurosci. 18:10277–10286 (1998)).

In data set [3] the test system is caspases, calpains, proteasome. As to the kind of experiment: Protease activation during SP-induced cell death, substrate hydrolysis in cytosolic extracts of NK1R-transfected 293T cells. The data set is classed as biochemical, human. Here is the method: Preparation of cell-free extract for kinetic studies: 293T cells seeded at the density of 2 million cells per 10 cm dish were transfected with NK1R cDNA using Lipofectamine 2000 (Gibco) according the instructions provided by the manufacturer. After 24 hr 10 nM SP was added to half of the culture dishes. At 24 hr later the cells were washed with ice cold PBS and collected with a cell scraper. The cells pelleted at 700×g for 4 min were resuspended in cell lysis buffer at pH 7.4 containing 1 mM dithiothreitol at a ratio of 1:1 (v/v). After 30 min on ice the swelled cells were disrupted with 20 strokes using a 27 gauge needle and further spun at 16,000×g for 30 min. The pellet was discarded and the supernatant which represents the cytosolic fraction was aliquoted and stored at −80° C. or used in the kinetic studies. The protein concentration was determined using the Bradford assay (Pierce).
For kinetic studies, the proteolytic activities were followed fluorometrically by monitoring AFC or AMC release from 100 μM of the corresponding substrates (Enzyme Systems Products): Caspase-1 like, Ac-YVAD-AFC; caspase-2, Ac-VDVAD-AFC; caspases-3 like, Ac-DEVD-AFC; caspase-6, Ac-VEID-AFC; caspase-8, Ac-IETD-AFC; caspase-9, Ac-LEHD-AFC. Calpain activity was monitored with 100 μM Suc-LY-AFC (succinyl-Leu-Tyr-7-amino-4-methylcoumarin, Enzyme Systems Products) at 5 μM and 5 mM CaCl2. The chymotrypsin activity of the proteasome was followed with 100 μM Suc-LLVY-AFC (succinyl-Leu-Leu-Val-Tyr-7-amino-4-methylcoumarin, Enzyme Systems Products), and cathepsins were assayed using 20 μM Z-FR-AMC (Benzyloxycarbonyl-Phe-Arg-7-amino-4-methylcoumarin, Bachem). A 10 μl aliquot of extract in the presence or absence of SP was added to 90 μl of substrate at the appropriate concentration and pH. The reaction was continuously monitored during 30 min and 37° C. in a fluorescence microplate reader (Molecular Devices). The instrument was set at excitation and emission wavelengths of 405 and 510 for AFC releasing group, and 370 and 460 nm, for AMC releasing group, respectively. The steady-state hydrolysis rates were obtained from the linear part of the curves.

With “SP: eleven amino acid neurotransmitter of the tachykinin family, ligand of NK1R”, in data set [1], the “sensitivity of 293T cells to SP-induced cell death” value was “resistant”. The “sensitivity of neurons to SP” value in data set [2] (48 hours after exposure) is listed as “sensitive to micromolar concentrations”; in data set [2] (seven days after exposure, SP added only once), “sensitive to nanomolar concentrations”. For the same substance, the “effect of SP isomer on neuronal cell death” value in data set [2] (L or D isomer) is “induced cell death”. In addition, the “change in cytoplasmic calcium” value in the data set with cytoplasmic calcium was “did not induce a detectable change”. Further, the “activation of calpains and chymotrypsin-like activity of the proteasome” value in data set [3] is “no significant effect on the rates of substrate hydrolysis”. Moreover, the “hydrolysis of substrates for initiator and executioner caspases” value in data set [3] (10 nM SP, 24 hr) is given as “no hydrolysis of substrates”. Further, in data set [3] (extracts with granzyme B added), the “DEVDase activity in response to SP stimulation” value is listed as “no significant difference”.

Source of the values: US6994981B2, “Modulators of paraptosis and related methods” (The Buck Institute, priority 2002, dated 2006).
